Tests used:
[1] = tested on: RNA transcripts of genes having intronic REMS elements; assay: Change in isoform abundance and iExon/exon inclusion (ΔPSI, Fisher's Exact Test) in the presence of compound; assay type: cell-based; conditions: doses ranging from 0.3 μM to 3 μM, statistically significant adjusted Fisher's Exact Test p value
Experimental: Techniques known to one skilled in the art may be used to determine the amount of an RNA transcript(s). In some embodiments, the amount of one, two, three or more RNA transcripts is measured using deep sequencing, such as ILLUMINA® RNASeq, ILLUMINA® next generation sequencing (NGS), ION TORRENT™ RNA next generation sequencing, 454™ pyrosequencing, or Sequencing by Oligo Ligation Detection (SOLID™). In other embodiments, the amount of multiple RNA transcripts is measured using an exon array, such as the GENECHIP® human exon array. In certain embodiments, the amount of one, two, three or more RNA transcripts is determined by RT-PCR. In other embodiments, the amount of one, two, three or more RNA transcripts is measured by RT-qPCR or digital color-coded barcode technology. Techniques for conducting these assays are known to one skilled in the art. […]
Where “U” represents the value for probability of iExon inclusion (a+b)/2/[(a+b)/2+c]^U in the absence of the compound; and, where “C” represents the value for probability of iExon inclusion (a+b)/2/[(a+b)/2+c]^C in the presence of the compound. The values for “a” and “b” represent the number of reads supporting inclusion of an iExon in an RNA transcript. In other words, the “a” value is derived from the amount of reads for a first intronic nucleotide sequence comprising, in 5′ to 3′ order: a first exon having a 5′ splice site operably linked and upstream from a first intronic nucleotide sequence comprising a first branch point further operably linked and upstream from a first intronic 3′ splice site (upstream of the nascent iExon). The “b” value is derived from the amount of reads for a second intronic nucleotide sequence comprising, in 5′ to 3′ order: an iREMS sequence operably linked downstream from the first intronic 3′ splice site and upstream from a second intronic nucleotide sequence comprising a second branch point further operably linked and upstream from a second intronic 3′ splice site of a second exon. The value for “c” represents the number of reads supporting exclusion of an iExon. […]

[2] = tested on: RNA transcripts in PNN cell line; assay: ΔPSI (iExon production / exon inclusion), FET and Fold Decrease of RNA transcripts in PNN cell line treated at 3 μM; assay type: cell-based; conditions: for FD PNN: Fold Decrease
Experimental: Results: The statistically significant value for the likelihood of iExon production (ΔPSI) according to the Fisher's Exact Test (FET) for PNN and HDF cell lines treated with Compound 774 at 3 μM and Fold Decrease (FD) for certain genes tested, where NR represents “Not Reported,” is shown in Table 10.
(§1) The ΔPSI for inclusion of an iExon and resulting modulated expression of RNA transcripts identified is represented by stars, where one star (*) represents ≤25% change in expression, where two stars (**) represent change in expression in a range from <26% to ≤50% change, where three stars (***) represent change in expression in a range from <51% to ≤75% change, and, where four stars (****) represent change in expression in a range from <75% to ≤100% change.
Results: The statistically significant value for the likelihood of exon inclusion (ΔPSI) according to the Fisher's Exact Test (FET) for PNN and HDF cell lines treated with Compound 774 at 3 μM and Fold Decrease (FD) for certain genes tested, where NR represents “Not Reported,” is shown in Table 10a.
as §1, with “exon” for “iExon”

[3] = gene FAM198B, exon e3, PNN cells, 3 μM
[4] = gene PRUNE2, exon e18, PNN cells, 3 μM

`CCc1nc(C)cn2nc(-c3cc(=O)n4cc(C5CCN(C)CC5)cc(C)c4n3)cc12` [Compound 774] was tested, and the “effect on change in isoform abundance as a result of having intronic REMS elements” value ([1]; genes of Table 7) was “demonstrate an effect on change in isoform abundance”, the “effect on inclusion of an iExon with a corresponding change in isoform abundance” value ([1]; genes of Table 7a) was “demonstrate an effect on inclusion of an iExon with a corresponding change in isoform abundance” and the “effect on inclusion of an exon with a corresponding change in isoform abundance” value ([1]; genes of Table 7b) was “demonstrate an effect on inclusion of an exon with a corresponding change in isoform abundance”. For the same compound, the “FD PNN” value [2, 3] was −1.81, the “FD PNN” value [2, 4] was −0.52 and the “ΔPSI (PNN)” value ([2]; gene APLP2, exon e7, PNN cells, 3 μM) was “** (two stars (**) represent change in expression in a range from <26% to ≤50% change)”. The “ΔPSI (PNN)” value ([2]; gene AXIN1, exon e9, PNN cells, 3 μM) was “** (two stars (**) represent change in expression in a range from <26% to ≤50% change)”, the “ΔPSI (PNN)” value ([2]; gene CECR7, exon e5, PNN cells, 3 μM) was “* (one star (*) represents ≤25% change in expression)” and the “ΔPSI (PNN)” value ([2]; gene DAGLB, exon e4, PNN cells, 3 μM) was “* (one star (*) represents ≤25% change in expression)”. The “ΔPSI (PNN)” value ([2]; gene DLGAP4, exon e8, PNN cells, 3 μM) was “* (one star (*) represents ≤25% change in expression)”, the “ΔPSI (PNN)” value ([2]; gene ERCC1, exon e8, PNN cells, 3 μM) was “* (one star (*) represents ≤25% change in expression)” and the “ΔPSI (PNN)” value ([2]; gene ERGIC3, exon e8, PNN cells, 3 μM) was “* (one star (*) represents ≤25% change in expression)”. The “ΔPSI (PNN)” value [2, 3] was “* (one star (*) represents ≤25% change in expression)”, the “ΔPSI (PNN)” value ([2]; gene GGCT, exon e2, PNN cells, 3 μM) was “** (two stars (**) represent change in expression in a range from <26% to ≤50% change)” and the “ΔPSI (PNN)” value ([2]; gene HAT1, exon e3, PNN cells, 3 μM) was “* (one star (*) represents ≤25% change in expression)”. For the same compound, the “ΔPSI (PNN)” value ([2]; gene HPS1, exon e5, PNN cells, 3 μM) was “* (one star (*) represents ≤25% change in expression)”, the “ΔPSI (PNN)” value ([2]; gene INPP5K, exon e2, PNN cells, 3 μM) was “* (one star (*) represents ≤25% change in expression)” and the “ΔPSI (PNN)” value ([2]; gene MADD, exon e21, PNN cells, 3 μM) was “* (one star (*) represents ≤25% change in expression)”. For the same compound, the “ΔPSI (PNN)” value ([2]; gene PPHLN1, exon e3, PNN cells, 3 μM) was “*** (three stars (***) represent change in expression in a range from <51% to ≤75% change)”, the “ΔPSI (PNN)” value [2, 4] was “* (one star (*) represents ≤25% change in expression)” and the “ΔPSI (PNN)” value ([2]; gene RAP1A, exon e2, PNN cells, 3 μM) was “* (one star (*) represents ≤25% change in expression)”. For the same compound, the “ΔPSI (PNN)” value ([2]; gene RNFT1, exon e3, PNN cells, 3 μM) was “* (one star (*) represents ≤25% change in expression)”, the “ΔPSI (PNN)” value ([2]; gene RPS6KB2, exon e2, PNN cells, 3 μM) was “* (one star (*) represents ≤25% change in expression)” and the “ΔPSI (PNN)” value ([2]; gene SH3YL1, exon e9, PNN cells, 3 μM) was “* (one star (*) represents ≤25% change in expression)”. The “ΔPSI (PNN)” value ([2]; gene SKA2, exon e3, PNN cells, 3 μM) was “* (one star (*) represents ≤25% change in expression)”, the “ΔPSI (PNN)” value ([2]; gene SPATA18, exon e4, PNN cells, 3 μM) was “** (two stars (**) represent change in expression in a range from <26% to ≤50% change)” and the “ΔPSI (PNN)” value ([2]; gene STRN3, exon e8, PNN cells, 3 μM) was “**** (four stars (****) represent change in expression in a range from <75% to ≤100% change)”. The “ΔPSI (PNN)” value ([2]; gene TMEM189-UBE2V1, exon e6, PNN cells, 3 μM) was “* (one star (*) represents ≤25% change in expression)”, the “ΔPSI (PNN)” value ([2]; gene TRIM65, exon e5, PNN cells, 3 μM) was “*** (three stars (***) represent change in expression in a range from <51% to ≤75% change)” and the “ΔPSI (PNN)” value ([2]; gene TUBE1, exon e4, PNN cells, 3 μM) was “* (one star (*) represents ≤25% change in expression)”. For the same compound, the “ΔPSI (PNN)” value ([2]; gene UBE2V1, exon e3, PNN cells, 3 μM) was “* (one star (*) represents ≤25% change in expression)”, the “ΔPSI (PNN)” value ([2]; gene VPS29, exon e2, PNN cells, 3 μM) was “** (two stars (**) represent change in expression in a range from <26% to ≤50% change)” and the “ΔPSI (PNN)” value ([2]; gene ZFP82, iExon inclusion position i4, PNN cell line, Compound 774 at 3 μM) was “** (two stars (**) represent change in expression in a range from <26% to ≤50% change)”. The “ΔPSI (PNN)” value ([2]; gene ZNF37BP, iExon inclusion position i4, PNN cell line, Compound 774 at 3 μM) was “**** (four stars (****) represent change in expression in a range from <75% to ≤100% change)”, the “ΔPSI (PNN)” value ([2]; gene ZNF138, iExon inclusion position i3, PNN cell line, Compound 774 at 3 μM) was “*** (three stars (***) represent change in expression in a range from <51% to ≤75% change)” and the “ΔPSI (PNN)” value ([2]; gene ZNF232, iExon inclusion position i4, PNN cell line, Compound 774 at 3 μM) was “* (one star (*) represents ≤25% change in expression)”. The “ΔPSI (PNN)” value ([2]; gene ZNF680, exon e3, PNN cells, 3 μM) was “* (one star (*) represents ≤25% change in expression)”.

— patent US11702646B2, “Methods for modulating RNA splicing” (PTC THERAPEUTICS, INC., priority 2016, dated 2023)
